Experimental findings from patent US20230089966A1, “METHOD FOR DIFFERENTIATION OF BRAIN MURAL CELLS FROM HUMAN PLURIPOTENT STEM CELLS” (WISCONSIN ALUMNI RESEARCH FOUNDATION, priority 2021, published 2023) are described below.

In test [1] the target is T1, Notch intracellular domain-RBPJ assembly (Homo sapiens, UniProt Q06330).
T1 construct: corresponding to amino acids 1,662-2,321 of NP_00426.2; initiator Met (start codon supplied by the forward primer) (N); expressed in transfected cells; host or cells: H9 hPSC-derived p75+ neural crest cells transduced with N3ICD-GFP (pWPI-N3ICD) lentivirus; RBPJ is endogenous
T1 sequence (Q06330 whole entry, the tested form may be a part): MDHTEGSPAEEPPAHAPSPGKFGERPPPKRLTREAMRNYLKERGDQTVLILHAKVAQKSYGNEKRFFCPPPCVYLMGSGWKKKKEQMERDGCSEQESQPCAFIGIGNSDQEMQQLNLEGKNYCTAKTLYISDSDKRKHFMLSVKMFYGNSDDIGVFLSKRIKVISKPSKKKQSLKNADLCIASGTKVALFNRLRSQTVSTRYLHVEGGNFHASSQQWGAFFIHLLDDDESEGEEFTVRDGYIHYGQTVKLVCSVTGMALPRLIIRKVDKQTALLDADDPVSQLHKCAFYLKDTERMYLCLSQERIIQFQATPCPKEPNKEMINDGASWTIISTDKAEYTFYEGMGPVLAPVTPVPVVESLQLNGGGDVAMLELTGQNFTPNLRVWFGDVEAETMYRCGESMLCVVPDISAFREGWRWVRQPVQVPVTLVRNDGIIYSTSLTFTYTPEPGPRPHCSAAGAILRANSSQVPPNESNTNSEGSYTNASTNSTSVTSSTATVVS
Put plainly: Loss-of-function experiment, RT-qPCR of mural cell gene expression. The format is cell-based. The conditions noted are these: 10 μM CB-103 in culture medium; 6 days after transduction of neural crest cells. Here is the method: When neural crest cells reached ˜40-50% confluence (˜2-3 days post-MACS), lentiviral transduction was performed by replacing medium in each well E6-CSFD medium containing 30-50 μL N3ICD-GFP, N1ICD-GFP, or TBX2-GFP lentivirus per mL, or 5-8 μL GFP (control) lentivirus per mL, which achieved transduction efficiencies of 50-80%. E6-CSFD medium was replaced every other day for 6 days. In some experiments, culture medium was supplemented with 10 μM CB-103 (MedChemExpress, Monmouth Junction, N.J.). The resulting cultures were either used directly for analysis or sorted to isolate GFP^+ and GFP^− cells as described below.
RNA extraction was performed using the RNeasy Plus Micro Kit (Qiagen). Cells were lysed with 350 μL Buffer RLT supplemented with 1% β-mercaptoethanol (Sigma) and transferred to gDNA Eliminator spin columns. 350 μL 70% ethanol was added to each lysate, and lysates were loaded onto RNeasy MinElute spin columns. Columns were washed with Buffer RW1, Buffer RPE, and 80% ethanol according to manufacturer protocols. RNA was eluted with RNase-free water and concentration quantified using a NanoDrop 2000 spectrophotometer (Thermo Scientific, Waltham, Mass.). 250-1000 ng of RNA was reverse-transcribed for 1 h at 37° C. using the OmniScript RT Kit (Qiagen) and 1 μM Oligo(dT)12-18 primers (Life Technologies). […]

For test [2], the system named is N3ICD-GFP-transduced culture. Nature of the test: Calcium imaging after KCl application. The format is cell-based, human. As to conditions: 40 mM KCl, 6 days after transduction. Here is the method: Calcium imaging was performed 6 days after transduction of a neural crest cultures with N3ICD-GFP lentivirus as described above. FLIPR Calcium 6 dye (Molecular Devices, San Jose, Calif.) was prepared according to manufacturer instructions. 500 μL of prepared dye was added to the existing 500 μL of culture medium and cells incubated at 37° C., 5% CO2 for 2 h. The plate was transferred to a microscope environmental chamber at 37° C., 5% CO2 and equilibrated for 30 min. Images were acquired every 5 s for 300 s using an Eclipse Ti2-E microscope with a 4× objective. At t=50 s, a 1:114 dilution of saturated KCl solution (4.56 M, for a final concentration of 40 mM) was added to the well.

Test [3] relates to GFP+ cells isolated via FACS from a N3ICD-GFP-transduced culture. Put plainly: Contraction assay (change in cell area). The format is cell-based, human. The conditions noted are these: 40 mM KCl, 15 min after addition; GFP+ cells 2 days after FACS; water control 0% change. As to the method: The contraction assay was performed 2 days after isolation of GFP^+ cells via FACS from a N3ICD-GFP-transduced culture as described above. The plate was transferred to a microscope environmental chamber at 37° C., 5% CO2 and equilibrated for 30 min. At t=0 min, a 1:114 dilution of saturated potassium chloride solution, or an equivalent volume of water, was added to the culture medium and the plate briefly rocked to mix. Phase contrast images were acquired immediately upon addition of potassium chloride or water and 15 min thereafter using an Eclipse Ti2-E microscope with a 20× objective. The Freehand Selection Tool in ImageJ was used to trace the outlines of 16 cells per 20× field at times 0 and 15 min, and the Measure function used to obtain A0 and A15, the cell areas at times 0 and 15 min, respectively. For each cell, the percent change in area was computed as (A15−A0)/A0×100%.

Test [4] deals with T2, KATP channels (Homo sapiens, UniProt O60706).
T2 construct: endogenous in cells; host or cells: hPSC-derived neural crest cultures 6 days after transduction with GFP or N3ICD-GFP lentivirus
T2 sequence (O60706 whole entry): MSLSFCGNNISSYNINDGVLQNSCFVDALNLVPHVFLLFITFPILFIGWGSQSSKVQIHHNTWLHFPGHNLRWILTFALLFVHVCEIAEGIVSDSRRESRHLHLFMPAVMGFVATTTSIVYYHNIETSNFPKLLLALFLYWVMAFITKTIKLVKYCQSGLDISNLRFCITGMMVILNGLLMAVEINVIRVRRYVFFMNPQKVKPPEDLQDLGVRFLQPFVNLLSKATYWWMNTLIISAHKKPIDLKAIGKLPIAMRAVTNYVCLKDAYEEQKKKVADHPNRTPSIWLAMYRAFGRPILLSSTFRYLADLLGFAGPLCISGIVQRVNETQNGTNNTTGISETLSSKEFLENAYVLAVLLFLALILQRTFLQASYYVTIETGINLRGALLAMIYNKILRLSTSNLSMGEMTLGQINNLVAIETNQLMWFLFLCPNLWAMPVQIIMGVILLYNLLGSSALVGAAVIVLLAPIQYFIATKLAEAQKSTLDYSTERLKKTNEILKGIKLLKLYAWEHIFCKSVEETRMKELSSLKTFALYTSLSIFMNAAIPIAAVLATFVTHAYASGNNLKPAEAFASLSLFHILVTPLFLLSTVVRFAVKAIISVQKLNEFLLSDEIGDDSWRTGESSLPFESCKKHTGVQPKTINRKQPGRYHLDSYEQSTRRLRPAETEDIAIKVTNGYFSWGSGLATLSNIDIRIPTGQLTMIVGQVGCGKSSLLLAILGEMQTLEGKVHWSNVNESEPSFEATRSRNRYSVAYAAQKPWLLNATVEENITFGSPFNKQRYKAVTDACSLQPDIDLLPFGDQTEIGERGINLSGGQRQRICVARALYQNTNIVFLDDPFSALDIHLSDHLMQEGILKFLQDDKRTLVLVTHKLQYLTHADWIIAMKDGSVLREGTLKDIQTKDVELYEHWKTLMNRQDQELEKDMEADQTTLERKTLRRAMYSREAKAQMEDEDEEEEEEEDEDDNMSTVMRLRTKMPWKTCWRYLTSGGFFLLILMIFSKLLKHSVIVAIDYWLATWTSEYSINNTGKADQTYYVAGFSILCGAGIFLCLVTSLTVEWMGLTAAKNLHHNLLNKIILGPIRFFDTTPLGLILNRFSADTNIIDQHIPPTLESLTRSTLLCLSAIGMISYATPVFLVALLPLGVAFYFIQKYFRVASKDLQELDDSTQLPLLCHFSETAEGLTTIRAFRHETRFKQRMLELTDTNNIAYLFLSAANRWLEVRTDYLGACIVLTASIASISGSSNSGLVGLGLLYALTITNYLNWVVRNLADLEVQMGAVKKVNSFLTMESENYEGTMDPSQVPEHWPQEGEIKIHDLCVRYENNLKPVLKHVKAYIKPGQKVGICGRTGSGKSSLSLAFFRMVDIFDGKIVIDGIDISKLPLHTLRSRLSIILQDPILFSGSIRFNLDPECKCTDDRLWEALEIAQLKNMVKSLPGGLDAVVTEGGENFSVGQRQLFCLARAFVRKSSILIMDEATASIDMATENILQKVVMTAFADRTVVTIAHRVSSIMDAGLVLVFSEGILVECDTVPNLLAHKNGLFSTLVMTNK
T2 sequence (Q15842 whole entry partner): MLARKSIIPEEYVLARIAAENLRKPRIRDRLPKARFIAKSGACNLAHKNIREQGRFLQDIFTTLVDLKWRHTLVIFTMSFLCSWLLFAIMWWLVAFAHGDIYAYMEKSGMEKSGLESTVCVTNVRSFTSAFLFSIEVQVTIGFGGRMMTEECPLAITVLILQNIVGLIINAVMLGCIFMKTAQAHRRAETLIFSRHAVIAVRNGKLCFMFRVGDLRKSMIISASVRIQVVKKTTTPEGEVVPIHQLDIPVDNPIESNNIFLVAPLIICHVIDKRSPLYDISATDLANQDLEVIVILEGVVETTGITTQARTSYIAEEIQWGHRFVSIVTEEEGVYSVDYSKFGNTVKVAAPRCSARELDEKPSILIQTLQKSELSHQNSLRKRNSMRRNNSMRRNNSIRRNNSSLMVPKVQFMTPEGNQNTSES
Nature of the test: KATP channel function by calcium imaging after KCl-induced depolarization. Format: cell-based. The conditions noted are these: 20 μM pinacidil pretreatment, 40 mM KCl, 30 s after addition. As to the method: To assess function of KATP channels, cells 6 days after transduction with GFP or N3ICD-GFP lentiviruses were labeled with FLIPR Calcium 6 dye as above, and 20 μM pinacidil (Santa Cruz Biotechnology, Dallas, Tex.) or DMSO added 1.5 h after addition of dye. After an additional 30 min incubation, the plate was transferred to the microscope environmental chamber. Images were acquired every 5 s for 60 s and 40 mM KCl added at t=20 s. Mean fluorescence intensity was quantified as above.

Structures are written as SMILES.

Regarding `CC(C)(C)c1ccc(Oc2ccc(N)cn2)cc1` [CB-103], the “Notch-dependence of N3ICD-GFP-mediated transcriptional changes” value in test [1] was “confirmed that N3ICD-GFP-mediated transcriptional changes occurred via a canonical Notch transactivation mechanism”.

As to `[Cl-].[K+]` [KCl, potassium chloride], the “Calcium response of cells to KCl application” value in test [2] was “led to depolarization and calcium influx”. The “average reduction in area of cells” value in test [3] is reported as “approximately 7%”.

Consider `CC(N/C(=N\C#N)Nc1ccncc1)C(C)(C)C` (centres unmarked) [pinacidil], for which the “intracellular calcium after KCl-induced depolarization versus DMSO-treated cells” value is reported as “such a difference was not observed” in test [4] (GFP-transduced cultures) and “reduced intracellular calcium” in test [4] (N3ICD-GFP-transduced cultures).
